Test results taken from ChEMBL document CHEMBL1130818, “High affinity, selective neurokinin 2 and neurokinin 3 receptor antagonists from a common structural template” (Bioorg Med Chem Lett, 1998).

Columns and labels:
Substance-P receptor = Substance-P receptor (Homo sapiens, UniProt P25103); test: Compound was evaluated for affinity towards human Neurokinin NK1 receptor
Neuromedin-K receptor = target: T1, Neuromedin-K receptor (Homo sapiens, UniProt P29371); test: Compound was evaluated for affinity towards human Neurokinin NK3 receptor
T1 sequence (P29371 whole entry): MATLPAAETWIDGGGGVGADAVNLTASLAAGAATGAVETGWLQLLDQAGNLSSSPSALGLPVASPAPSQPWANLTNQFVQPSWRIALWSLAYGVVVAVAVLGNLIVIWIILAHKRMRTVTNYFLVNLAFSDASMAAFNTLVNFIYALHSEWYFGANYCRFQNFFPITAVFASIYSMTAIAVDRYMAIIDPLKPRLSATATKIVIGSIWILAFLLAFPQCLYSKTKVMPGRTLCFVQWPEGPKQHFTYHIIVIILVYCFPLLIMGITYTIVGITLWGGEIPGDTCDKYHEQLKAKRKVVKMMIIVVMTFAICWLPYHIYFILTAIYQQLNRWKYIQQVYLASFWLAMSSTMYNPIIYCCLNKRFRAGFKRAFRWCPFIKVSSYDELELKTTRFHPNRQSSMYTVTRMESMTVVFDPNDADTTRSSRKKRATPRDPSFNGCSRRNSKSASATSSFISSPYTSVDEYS

Substance-K receptor = target: T2, Substance-K receptor (Homo sapiens, UniProt P21452); test: Compound was evaluated for affinity towards human Neurokinin NK2 receptor
T2 sequence (P21452 whole entry): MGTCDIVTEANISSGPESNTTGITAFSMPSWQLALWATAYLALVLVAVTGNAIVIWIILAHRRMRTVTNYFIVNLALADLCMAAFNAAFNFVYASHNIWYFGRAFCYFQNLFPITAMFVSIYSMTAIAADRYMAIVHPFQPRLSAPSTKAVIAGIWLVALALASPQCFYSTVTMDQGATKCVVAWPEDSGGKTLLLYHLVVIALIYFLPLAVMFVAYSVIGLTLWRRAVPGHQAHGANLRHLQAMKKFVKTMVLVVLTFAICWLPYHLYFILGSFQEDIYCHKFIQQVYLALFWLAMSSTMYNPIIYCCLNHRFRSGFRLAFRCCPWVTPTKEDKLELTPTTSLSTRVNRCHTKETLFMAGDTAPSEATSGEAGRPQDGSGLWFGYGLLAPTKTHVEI

Sequence of Substance-P receptor (P25103 whole entry): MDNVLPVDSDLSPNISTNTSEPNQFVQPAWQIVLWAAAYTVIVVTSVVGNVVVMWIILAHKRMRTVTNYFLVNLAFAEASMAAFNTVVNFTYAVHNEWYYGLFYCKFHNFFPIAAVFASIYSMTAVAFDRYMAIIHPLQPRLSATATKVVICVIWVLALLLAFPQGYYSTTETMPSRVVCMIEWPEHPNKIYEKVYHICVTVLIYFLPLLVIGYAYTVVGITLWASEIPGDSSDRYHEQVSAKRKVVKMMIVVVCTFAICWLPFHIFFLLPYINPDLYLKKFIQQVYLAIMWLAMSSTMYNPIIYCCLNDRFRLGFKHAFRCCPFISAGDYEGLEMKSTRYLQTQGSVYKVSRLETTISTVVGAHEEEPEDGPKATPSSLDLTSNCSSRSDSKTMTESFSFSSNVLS

Row | Compound | IC50 (Substance-P receptor) | IC50 (Neuromedin-K receptor) | IC50 (Substance-K receptor)
1 | O=C(c1ccccc1)N1CCCC(CCCN2CCC(n3c(=O)[nH]c4ccccc43)CC2)(c2ccc(Cl)c(Cl)c2)C1 (configuration not stated) | 379 nM | 7.9 nM | 348 nM
2 | CS(=O)(=O)N1CC2(CCN(CCCC3(c4ccc(Cl)c(Cl)c4)CCC(=O)N(Cc4ccccc4)C3)CC2)c2ccccc21 (configuration not stated) | 763 nM | 25 nM | 2.2 nM
3 | O=C1CCC(CCCN2CCC3(CC2)CN(c2ccccc2)NC3=O)(c2ccc(Cl)c(Cl)c2)CN1Cc1ccccc1 (configuration not stated) | 892 nM | 127 nM | 2.5 nM
4 | CS(=O)(=O)N1CC2(CCN(CCCC3(c4ccc(Cl)c(Cl)c4)CCCN(C(=O)c4ccccc4)C3)CC2)c2ccccc21 (configuration not stated) | 497 nM | 1.2 nM | 177 nM
5 | CC(=O)C1(c2ccccc2)CCN(CCCC2(c3ccc(Cl)c(Cl)c3)CCC(=O)N(Cc3ccccc3)C2)CC1 (configuration not stated) | 1030 nM | 19 nM | 3.9 nM
6 | O=C(c1ccccc1)N1CCCC(CCCN2CCC3(CC2)CN(c2ccccc2)NC3=O)(c2ccc(Cl)c(Cl)c2)C1 (configuration not stated) | 108 nM | 6.8 nM | 50 nM
7 | O=C(c1ccccc1)N1CCCC(CCCN2CCC3(CCc4ccccc43)CC2)(c2ccc(Cl)c(Cl)c2)C1 (configuration not stated) | 272 nM | 2.6 nM | 204 nM
8 | O=C1CCC(CCCN2CCC(n3c(=O)[nH]c4ccccc43)CC2)(c2ccc(Cl)c(Cl)c2)CN1Cc1ccccc1 (configuration not stated) | 743 nM | 539 nM | 6.4 nM
9 | CC(=O)C1(c2ccccc2)CCN(CCCC2(c3ccc(Cl)c(Cl)c3)CCCN(C(=O)c3ccccc3)C2)CC1 (configuration not stated) | 460 nM | 1.5 nM | 389 nM
